≈ marks a conversion by molar mass, not a printed value. Like-named read-outs stand apart in the source and are kept apart here.

Holding throughout (assay): In vitro anti-bacterial activity test (MIC, two-fold dilution method) against the standard strains
Format in all cases: cell-based

Test [1] deals with Streptococcus pyogenes 308 A. As to conditions: Table 1 strain 1: Streptococcus pyogenes 308 A.
Test [2] concerns Streptococcus pyogenes 77 A. Particulars: Table 1 strain 2: Streptococcus pyogenes 77 A; read-out: MIC.
Test [3] concerns Streptococcus faecium MD 8b. Particulars: Enterococcus faecium, MD8B; Table 1 strain 3: Streptococcus faecium MD 8b; read-out: MIC.
The subject of test [4] is Staphylococcus aureus SG 511. As to conditions: SG511; Table 1 strain 4: Staphylococcus aureus SG 511.
In test [5] the test system is Staphylococcus aureus 285. As to conditions: Table 1 strain 5: Staphylococcus aureus 285; read-out: MIC.
The subject of test [6] is Staphylococcus aureus 503. As to conditions: Table 1 strain 6: Staphylococcus aureus 503; read-out: MIC.
The test system of test [7] is Escherichia coli DC 0. As to conditions: DC0; Table 1 strain 7: Escherichia coli DC 0.
Test [8] relates to Escherichia coli DC 0. As to conditions: DC0; Table 1 strain 8: Escherichia coli DC 0.
The test system of another test is Escherichia coli DC 2. As to conditions: DC2.
In another test the test system is Escherichia coli OTEM. As to conditions: Table 1 strain 10: Escherichia coli OTEM.
For a further test, the system named is Escherichia coli 1507 E. As to conditions: Table 1 strain 11: Escherichia coli 1507 E.
The test system of test [9] is Pseudomonas aeruginosa 9027. As to conditions: Table 1 strain 12: Pseudomonas aeruginosa 9027.
Test [10] concerns Pseudomonas aeruginosa 1592 E. Particulars: Table 1 strain 13: Pseudomonas aeruginosa 1592 E.
Test [11] deals with Pseudomonas aeruginosa 1771. As to conditions: Table 1 strain 14: Pseudomonas aeruginosa 1771.
The test system of test [12] is Pseudomonas aeruginosa 1771 M. As to conditions: Table 1 strain 15: Pseudomonas aeruginosa 1771 M.
A further test deals with Salmonella typhimurium. Particulars: Salmonella enterica; Table 1 strain 16: Salmonella typhimurium.
The subject of test [13] is Klebsiella aerogenes 1082 E. As to conditions: Table 1 strain 17: Klebsiella aerogenes 1082 E.
The subject of test [14] is Klebsiella aerogenes 1522 E. As to conditions: Table 1 strain 18: Klebsiella aerogenes 1522 E.
The subject of test [15] is Enterobacter cloacae P 99. Particulars: P99; Table 1 strain 19: Enterobacter cloacae P 99.
Test [16] relates to Enterobacter cloacae 1321 E. As to conditions: Table 1 strain 20: Enterobacter cloacae 1321 E.
The mark [17] stands for this setting: Table 1 strain 9: Escherichia coli DC 2, read-out: MIC.

For `COc1c(N2CCC3(CC3N)C2)c(F)cc2c(=O)c(C(=O)O)cn(C3CC3)c12` (centres unmarked) [Example 19, 7-(1-amino-5-azaspiro[2,4]heptane-5-yl)-1-cyclopropyl-8-methoxy-6-fluoro-1,4-dihydro-4-oxoquinoline-3-carboxylic acid], the minimal inhibitory concentration (MIC) in test [1] was 0.195 µg/mL (≈ 0.503 µM); in test [2], 0.098 µg/mL (≈ 0.253 µM); in [3] it was 0.098 µg/mL (≈ 0.253 µM); in test [4], 0.025 µg/mL (≈ 0.0645 µM); in test [5], 0.049 µg/mL (≈ 0.126 µM); in test [6] it was 0.025 µg/mL (≈ 0.0645 µM). Further, the minimum inhibitory concentration (MIC) is 0.025 µg/mL (≈ 0.0645 µM) with Escherichia coli DC 0 [7]; 0.391 µg/mL (≈ 1.01 µM) in the test with Escherichia coli DC 0 [8]; 0.049 µg/mL (≈ 0.126 µM) with Escherichia coli DC 2 (setting [17]); 0.049 µg/mL (≈ 0.126 µM) with Escherichia coli OTEM; 0.049 µg/mL (≈ 0.126 µM) in the test on Escherichia coli 1507 E; 1.56 µg/mL (≈ 4.03 µM) in [9]. Besides, the MIC in test [10] was determined as 1.56 µg/mL (≈ 4.03 µM); in [11], 1.56 µg/mL (≈ 4.03 µM); in test [12] it was 0.391 µg/mL (≈ 1.01 µM); in the test on Salmonella typhimurium it was 0.049 µg/mL (≈ 0.126 µM); in test [13], 0.007 µg/mL (≈ 0.0181 µM); in test [14], 0.098 µg/mL (≈ 0.253 µM). The values for the MIC in [15] and in test [16] were 0.049 µg/mL (≈ 0.126 µM) and 0.025 µg/mL (≈ 0.0645 µM), respectively.

On to `C[C@H]1COc2c(N3CCC4(CC4C(=O)O)C3)c(F)cc3c(=O)c(C(=O)O)cn1c23` (some centres unmarked) [Example 14], for which the MIC is 3.12 µg/mL (≈ 7.77 µM) in test [1]; 1.56 µg/mL (≈ 3.88 µM) in test [2]; 1.56 µg/mL (≈ 3.88 µM) in [3]; 0.098 µg/mL (≈ 0.244 µM) in test [4]; 0.098 µg/mL (≈ 0.244 µM) in test [5]; 0.098 µg/mL (≈ 0.244 µM) in test [6]. In addition, the minimal inhibitory concentration (MIC) in the test on Escherichia coli DC 0 [7] is 0.195 µg/mL (≈ 0.485 µM); against Escherichia coli DC 0 [8], 6.25 µg/mL (≈ 15.5 µM); in the test on Escherichia coli DC 2 (setting [17]), 0.391 µg/mL (≈ 0.972 µM); against Escherichia coli OTEM, 0.391 µg/mL (≈ 0.972 µM); with Escherichia coli 1507 E, 0.781 µg/mL (≈ 1.94 µM); in [9], 12.5 µg/mL (≈ 31.1 µM). Further, the MIC in test [10] came to 6.25 µg/mL (≈ 15.5 µM); in [11] it was 12.5 µg/mL (≈ 31.1 µM); in [12] it was 1.56 µg/mL (≈ 3.88 µM); in the test with Salmonella typhimurium, 0.781 µg/mL (≈ 1.94 µM); in test [13] it was 0.098 µg/mL (≈ 0.244 µM); in test [14], 1.56 µg/mL (≈ 3.88 µM). Further, the figures for the MIC in [15] and in test [16] were 0.391 µg/mL (≈ 0.972 µM) and 0.195 µg/mL (≈ 0.485 µM), respectively.

In the case of `CNC1CC12CCN(c1c(F)c(N)c3c(=O)c(C(=O)O)cn(C4CC4)c3c1F)C2` (centres unmarked) [Example 12, 7-(1-methylamino-5-azaspiro[2,4]heptane-5-yl)-1-cyclopropyl-5-amino-6,8-difluoro-1,4-dihydro-4-oxoquinoline-3-carboxylic acid], the MIC in test [1] was found to be 0.195 µg/mL (≈ 0.482 µM); in [2], 0.195 µg/mL (≈ 0.482 µM); in [3], 0.195 µg/mL (≈ 0.482 µM); in test [4], 0.025 µg/mL (≈ 0.0618 µM); in [5] it was 0.025 µg/mL (≈ 0.0618 µM); in [6] it was 0.025 µg/mL (≈ 0.0618 µM). In addition, the MIC amounted to 0.025 µg/mL (≈ 0.0618 µM) in the test on Escherichia coli DC 0 [7]; 0.391 µg/mL (≈ 0.967 µM) in the test with Escherichia coli DC 0 [8]; 0.195 µg/mL (≈ 0.482 µM) in the test on Escherichia coli DC 2 (setting [17]); 0.049 µg/mL (≈ 0.121 µM) against Escherichia coli OTEM; 0.049 µg/mL (≈ 0.121 µM) in the test with Escherichia coli 1507 E; 3.12 µg/mL (≈ 7.73 µM) in test [9]. Moreover, the MIC in test [10] is 3.12 µg/mL (≈ 7.73 µM); in test [11], 1.56 µg/mL (≈ 3.86 µM); in [12], 0.391 µg/mL (≈ 0.967 µM); in the test on Salmonella typhimurium it was 0.049 µg/mL (≈ 0.121 µM); in [13], < 0.002 µg/mL; in test [14], 0.098 µg/mL (≈ 0.242 µM). Moreover, the minimum inhibitory concentration (MIC) in [15] was determined as 0.049 µg/mL (≈ 0.121 µM); in [16] it was 0.025 µg/mL (≈ 0.0618 µM).

As to `CC(O)C(=O)O.NC1CC12CCN(c1c(F)cc3c(=O)c(C(=O)O)cn(C4CC4)c3c1Cl)C2` (centres unmarked) [Example 4, 7-(1-amino-5-azaspiro[2,4]heptane-5-yl)-8-chloro-1-cyclopropyl-6-fluoro-1,4-dihydro-4-oxoquinoline-3-carboxylic acid lactate], the MIC in [1] is 0.098 µg/mL; in test [2] it was 0.049 µg/mL; in [3], 0.098 µg/mL; in test [4] it was 0.025 µg/mL; in [5] it was 0.025 µg/mL; in [6], 0.013 µg/mL. Moreover, the minimum inhibitory concentration (MIC) against Escherichia coli DC 0 [7] worked out at 0.007 µg/mL; in the test on Escherichia coli DC 0 [8], 0.098 µg/mL; against Escherichia coli DC 2 (Escherichia coli), 0.049 µg/mL; against Escherichia coli OTEM it was 0.025 µg/mL; against Escherichia coli 1507 E, 0.025 µg/mL; in test [9] it was 0.781 µg/mL. Besides, the minimal inhibitory concentration (MIC) in [10] is 0.781 µg/mL; in [11], 0.781 µg/mL; in test [12], 0.195 µg/mL; in the test on Salmonella typhimurium it was 0.025 µg/mL; in test [13] it was < 0.002 µg/mL; in test [14], 0.025 µg/mL. Also, the minimum inhibitory concentration (MIC) amounted to 0.025 µg/mL in test [15] and 0.007 µg/mL in test [16].

A word on the MIC: it is the lowest concentration that inhibits growth of the organism.

Values taken from patent publication EP0550016A1, “Novel quinolone carboxylic acid derivatives and processes for preparing same” (KOREA RESEARCH INSTITUTE OF CHEMICAL TECHNOLOGY, priority 1991, dated 1993).
